≈ marks a conversion by molar mass, not a printed value. Each block holds one molecule with its values, some of them ahead of it.
Assays:
[1] = Apparent permeability across apical to basolateral side in human Caco-2 cells assessed as drug recovery at pH 6.5 to 7.4; format: ADME, cell-based; conditions: Caco-2, pH 6.5, read-out: Drug recovery
[2] = Apparent permeability of the compound from apical to basolateral side in human Caco-2 cells at pH 6.5 to 7.4; format: ADME, cell-based; conditions: Caco-2, pH 6.5
[3] = n-Octanol/PBS partition coefficient, logD of the compound at pH 7.4; format: physicochemical
[4] = Aqueous solubility of compound by HPLC analysis; format: physicochemical
[5] = test system: IGROV-1; assay: Anticancer activity against human IGROV-1 cells assessed as cell growth inhibition incubated for 48 hrs by SRB assay; format: functional
[6] = test system: HOP-92; assay: Anticancer activity against human HOP-92 cells assessed as total cell growth inhibition incubated for 48 hrs by SRB assay; format: functional
[7] = test system: SF-268; assay: Anticancer activity against human SF-268 cells assessed as cell growth inhibition incubated for 48 hrs by SRB assay; format: functional
[8] = test system: SK-MEL-2; assay: Anticancer activity against human SK-MEL-2 cells assessed as cell growth inhibition incubated for 48 hrs by SRB assay; format: functional
[9] = test system: NCI-H460; assay: Anticancer activity against human NCI-H460 cells assessed as cell growth inhibition incubated for 48 hrs by SRB assay; format: functional
[10] = test system: NCI-H322M; assay: Anticancer activity against human NCI-H322M cells assessed as cell growth inhibition incubated for 48 hrs by SRB assay; format: functional
[11] = test system: TK-10; assay: Anticancer activity against human TK-10 cells assessed as total cell growth inhibition incubated for 48 hrs by SRB assay; format: functional
[12] = test system: ACHN; assay: Anticancer activity against human ACHN cells assessed as cell growth inhibition incubated for 48 hrs by SRB assay; format: functional
[13] = test system: SW-620; assay: Anticancer activity against human SW-620 cells assessed as cell growth inhibition incubated for 48 hrs by SRB assay; format: functional
[14] = test system: SK-MEL-28; assay: Anticancer activity against human SK-MEL-28 cells assessed as cell growth inhibition incubated for 48 hrs by SRB assay; format: functional
[15] = test system: MDA-MB-468; assay: Anticancer activity against human MDA-MB-468 cells assessed as total cell growth inhibition incubated for 48 hrs by SRB assay; format: functional
[16] = test system: HT-29; assay: Anticancer activity against human HT-29 cells assessed as cell growth inhibition incubated for 48 hrs by SRB assay; format: functional
[17] = test system: MCF7; assay: Anticancer activity against human MCF7 cells assessed as cell growth inhibition incubated for 48 hrs by SRB assay; format: functional
[18] = test system: ACHN; assay: Anticancer activity against human ACHN cells assessed as total cell growth inhibition incubated for 48 hrs by SRB assay; format: functional
[19] = test system: COLO 205; assay: Anticancer activity against human COLO 205 cells assessed as cell growth inhibition incubated for 48 hrs by SRB assay; format: functional
[20] = test system: NCI-H23; assay: Anticancer activity against human NCI-H23 cells assessed as cell growth inhibition incubated for 48 hrs by SRB assay; format: functional
[21] = test system: MOLT-4; assay: Anticancer activity against human MOLT-4 cells assessed as total cell growth inhibition incubated for 48 hrs by SRB assay; format: functional
[22] = test system: MDA-MB-468; assay: Anticancer activity against human MDA-MB-468 cells assessed as cell growth inhibition incubated for 48 hrs by SRB assay; format: functional
[23] = Cytotoxicity against human WI-38 cells assessed as cell growth inhibition incubated for 48 hrs by SRB assay; format: toxicity, cell-based
[24] = test system: SK-OV-3; assay: Anticancer activity against human SK-OV-3 cells assessed as cell growth inhibition incubated for 48 hrs by SRB assay; format: functional
[25] = test system: CCRF-CEM; assay: Anticancer activity against human CCRF-CEM cells assessed as cell growth inhibition incubated for 48 hrs by SRB assay; format: functional
[26] = test system: UACC-257; assay: Anticancer activity against human UACC-257 cells assessed as total cell growth inhibition incubated for 48 hrs by SRB assay; format: functional
[27] = test system: UACC-257; assay: Anticancer activity against human UACC-257 cells assessed as cell growth inhibition incubated for 48 hrs by SRB assay; format: functional
[28] = test system: UO-31; assay: Anticancer activity against human UO-31 cells assessed as cell growth inhibition incubated for 48 hrs by SRB assay; format: functional
[29] = test system: HCT-15; assay: Anticancer activity against human HCT-15 cells assessed as cell growth inhibition incubated for 48 hrs by SRB assay; format: functional
[30] = test system: HL-60; assay: Anticancer activity against human HL-60 cells assessed as total cell growth inhibition incubated for 48 hrs by SRB assay; format: functional
[31] = test system: IGROV-1; assay: Anticancer activity against human IGROV-1 cells assessed as total cell growth inhibition incubated for 48 hrs by SRB assay; format: functional
[32] = test system: NCI-H23; assay: Anticancer activity against human NCI-H23 cells assessed as total cell growth inhibition incubated for 48 hrs by SRB assay; format: functional
[33] = test system: MDA-MB-231; assay: Anticancer activity against human MDA-MB-231 cells assessed as cell growth inhibition incubated for 48 hrs by SRB assay; format: functional
[34] = test system: HOP-62; assay: Anticancer activity against human HOP-62 cells assessed as cell growth inhibition incubated for 48 hrs by SRB assay; format: functional
[35] = test system: PC-3; assay: Anticancer activity against human PC-3 cells assessed as cell growth inhibition incubated for 48 hrs by SRB assay; format: functional
[36] = test system: NCI-H522; assay: Anticancer activity against human NCI-H522 cells assessed as cell growth inhibition incubated for 48 hrs by SRB assay; format: functional
[37] = test system: TK-10; assay: Anticancer activity against human TK-10 cells assessed as cell growth inhibition incubated for 48 hrs by SRB assay; format: functional
[38] = test system: A498; assay: Anticancer activity against human A498 cells assessed as cell growth inhibition incubated for 48 hrs by SRB assay; format: functional
[39] = test system: Malme-3M; assay: Anticancer activity against human Malme-3M cells assessed as cell growth inhibition incubated for 48 hrs by SRB assay; format: functional
[40] = test system: NCI-H226; assay: Anticancer activity against human NCI-H226 cells assessed as cell growth inhibition incubated for 48 hrs by SRB assay; format: functional
[41] = test system: NCI/ADR-RES; assay: Anticancer activity against human NCI/ADR-RES cells assessed as cell growth inhibition incubated for 48 hrs by SRB assay; format: functional
[42] = test system: U-251; assay: Anticancer activity against human U-251 cells assessed as cell growth inhibition incubated for 48 hrs by SRB assay; format: functional
[43] = test system: SN12C; assay: Anticancer activity against human SN12C cells assessed as cell growth inhibition incubated for 48 hrs by SRB assay; format: functional
[44] = test system: M14; assay: Anticancer activity against human M14 cells assessed as cell growth inhibition incubated for 48 hrs by SRB assay; format: functional
[45] = test system: EKVX; assay: Anticancer activity against human EKVX cells assessed as cell growth inhibition incubated for 48 hrs by SRB assay; format: functional

SMILES: CC(CCc1ccccc1)NCC(O)c1ccc(O)c(C(N)=O)c1 (stereo unspecified) [LABETALOL]
- recovery [1]: 91%
- Papp A→B [2]: 72 ×10⁻⁶ cm/s

SMILES: COc1cc2cc(Oc3ccc(NC(=O)Nc4cc(C(F)(F)F)cc(C(F)(F)F)c4)cc3)c(C)nc2cc1OC
- solubility [4]: 212 µM (≈ 120 µg/mL)
- logD [3]: 3.1

SMILES: COc1cc2cc(Oc3ccc(NC(=O)Nc4ccc(Cl)c(C(F)(F)F)c4)cc3)c(C)nc2cc1OCCN(C)C
- solubility [4]: 114 µM (≈ 66.9 µg/mL)

SMILES: COc1cc2c(c(OC)c1OC)-c1ccc(OC)c(=O)cc1[C@@H](NC(C)=O)CC2 [COLCHICINE]
- recovery [1]: 75.5%
- Papp A→B [2]: 0.3 ×10⁻⁶ cm/s

Continued, in another order:

- recovery [1]: 82%
SMILES: CNC(=C[N+](=O)[O-])NCCSCc1ccc(CN(C)C)o1 [RANITIDINE]

- logD [3]: 4.45
SMILES: CCC(C)(C)C(=O)O[C@H]1C[C@@H](C)C=C2C=C[C@H](C)[C@H](CC[C@@H]3C[C@@H](O)CC(=O)O3)[C@H]21 [SIMVASTATIN]

- solubility [4]: 175 µM (≈ 144 µg/mL)
- logD [3]: 1.31
SMILES: CO[C@H]1/C=C/O[C@@]2(C)Oc3c(C)c(O)c4c(O)c(c(/C=N/N5CCN(C)CC5)c(O)c4c3C2=O)NC(=O)/C(C)=C\C=C\[C@H](C)[C@H](O)[C@@H](C)[C@@H](O)[C@@H](C)[C@H](OC(C)=O)[C@@H]1C [RIFAMPIN]

- solubility [4]: 93.1 µM (≈ 23.5 µg/mL)
SMILES: O=C1NC(=O)C(c2ccccc2)(c2ccccc2)N1 [PHENYTOIN]

- GI50 [8]: 2 µM
- GI50 [9]: 2.51 µM
- GI50 [10]: 2.51 µM
- solubility [4]: 3.27 µM (≈ 1.52 µg/mL)
- GI50 [12]: 2.51 µM
- GI50 [13]: 2.51 µM
- GI50 [14]: 2.51 µM
- GI50 [16]: 2 µM
- GI50 [17]: 2.51 µM
- logD [3]: 3.85
- GI50 [19]: 2 µM
- GI50 [20]: 2 µM
- GI50 [22]: 3.16 µM
- Papp A→B [2]: 16.4 ×10⁻⁶ cm/s
- GI50 [24]: 2.51 µM
- GI50 [25]: 2 µM
- GI50 [29]: 2.51 µM
- GI50 [33]: 1.26 µM
- GI50 [35]: 2 µM
- GI50 [36]: 2 µM
- GI50 [40]: 2 µM
- GI50 [42]: 2 µM
SMILES: CNC(=O)c1cc(Oc2ccc(NC(=O)Nc3ccc(Cl)c(C(F)(F)F)c3)cc2)ccn1 [SORAFENIB]
- GI50 [5]: 2.51 µM
- TGI [6]: 5.01 µM
- GI50 [7]: 2.51 µM
- TGI [11]: 10 µM
- TGI [15]: 7.94 µM
- TGI [18]: 10 µM
- TGI [21]: 100 µM
- GI50 at 48 h [23]: > 20 µM
- TGI [26]: 5.01 µM
- GI50 [27]: 2 µM
- GI50 [28]: 2.51 µM
- TGI [30]: 100 µM
- TGI [31]: 10 µM
- TGI [32]: 5.01 µM
- GI50 [34]: 2 µM
- GI50 [37]: 3.98 µM
- GI50 [38]: 2.51 µM
- GI50 [39]: 2 µM
- GI50 [41]: 2.51 µM
- GI50 [43]: 2.51 µM
- GI50 [44]: 2 µM
- GI50 [45]: 2.51 µM
